Non-standard residues stand in square brackets, D forms with d. Residues, ends and D or L forms follow the SMILES beside them. pT = C[C@@H](OP(=O)(O)O)[C@H](N)C(=O)O; pS = N[C@@H](COP(=O)(O)O)C(=O)O

This experiment concerns the target T1, 14-3-3ζ (Homo sapiens, UniProt P63104).
T1 construct: Full-length expression and purification of 14-3-3; made in house; host or cells: E. coli BL21 (DE3)STAR
T1 sequence (P63104 1-245): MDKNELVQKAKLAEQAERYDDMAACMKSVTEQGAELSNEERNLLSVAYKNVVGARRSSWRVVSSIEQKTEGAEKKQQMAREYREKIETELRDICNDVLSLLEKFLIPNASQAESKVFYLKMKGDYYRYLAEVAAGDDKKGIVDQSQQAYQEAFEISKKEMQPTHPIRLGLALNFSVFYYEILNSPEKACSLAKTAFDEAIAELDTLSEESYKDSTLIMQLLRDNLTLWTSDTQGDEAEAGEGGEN
Nature of the experiment: FP assay with GR phosphorylated peptides and 14-3-3ζ. The experiment is classed as binding. The note with it: read-out: PKd with 14-3-3ζ (converted). The protocol:
After 30-min incubation at RT, the plates were read on a plate reader PHERAstar (BMG LABTECH GmbH) for FP signal using […] and standard excitation (485 nm) and emission (520 nm). Measurements were performed as triplicates. Binding data were fit to a standard Hill equation using the software Genedata Screener. The figures were made using the software GraphPad Prism 8. FP data were expressed as millipolarization (mP) units, and the dynamic range (ΔmP) was the difference of the signals from the bound peptide and free peptide. Errors are the standard error of the fit.

`CC[C@H](C)[C@H](NC(=O)[C@@H](NC(=O)[C@@H](N)CCCCN)[C@@H](C)O)C(=O)N[C@H](C(=O)N1CCC[C@H]1C(=O)N[C@@H](C)C(=O)N[C@H](C(=O)N[C@@H](CC(C)C)C(=O)N1CCC[C@H]1C(=O)N[C@@H](CCC(N)=O)C(=O)N[C@@H](CC(C)C)C(=O)N[C@H](C(=O)N1CCC[C@H]1C(=O)NCC(=O)NCC(=O)NCC(=O)NCC(=O)NCC(=O)N[C@@H](CCCNC(=N)N)C(=O)N[C@@H](CO)C(=O)N[C@@H](Cc1ccc(O)cc1)C(=O)N[C@@H](CCCNC(=N)N)C(=O)N[C@@H](CCC(N)=O)C(=O)N[C@@H](CO)C(=O)N[C@@H](COP(=O)(O)O)C(=O)N[C@@H](C)C(=O)N[C@@H](CC(N)=O)C(=O)N[C@@H](CC(C)C)C(=O)N[C@@H](C)C(=O)N[C@@H](CS)C(=O)N[C@@H](Cc1ccccc1)C(=O)O)[C@@H](C)O)[C@@H](C)OP(=O)(O)O)C(C)C` [GR_L621A] (H-KTIVPA[pT]LPQLTPGGGGGRSYRQS[pS]ANLACF-OH): the Kd was 39.8 nM.
For `CC[C@H](C)[C@H](NC(=O)[C@@H](NC(=O)[C@@H](N)CCCCN)[C@@H](C)O)C(=O)N[C@H](C(=O)N1CCC[C@H]1C(=O)N[C@@H](C)C(=O)N[C@H](C(=O)N[C@@H](CC(C)C)C(=O)N1CCC[C@H]1C(=O)N[C@@H](CCC(N)=O)C(=O)N[C@@H](CC(C)C)C(=O)N[C@H](C(=O)N1CCC[C@H]1C(=O)NCC(=O)NCC(=O)NCC(=O)NCC(=O)NCC(=O)N[C@@H](CCCNC(=N)N)C(=O)N[C@@H](CO)C(=O)N[C@@H](Cc1ccc(O)cc1)C(=O)N[C@@H](CCCNC(=N)N)C(=O)N[C@@H](CCC(N)=O)C(=O)N[C@@H](CO)C(=O)N[C@@H](COP(=O)(O)O)C(=O)N[C@@H](C)C(=O)N[C@@H](C)C(=O)N[C@@H](CC(C)C)C(=O)N[C@@H](CC(C)C)C(=O)N[C@@H](CS)C(=O)N[C@@H](Cc1ccccc1)C(=O)O)[C@@H](C)O)[C@@H](C)OP(=O)(O)O)C(C)C` [GR_N619A] (H-KTIVPA[pT]LPQLTPGGGGGRSYRQS[pS]AALLCF-OH) the value was 39.8 nM; for `CC[C@H](C)[C@H](NC(=O)[C@@H](NC(=O)[C@@H](N)CCCCN)[C@@H](C)O)C(=O)N[C@H](C(=O)N[C@@H](C)C(=O)N[C@@H](C)C(=O)N[C@H](C(=O)N[C@@H](CC(C)C)C(=O)N1CCC[C@H]1C(=O)N[C@@H](CCC(N)=O)C(=O)N[C@@H](CC(C)C)C(=O)N[C@H](C(=O)N1CCC[C@H]1C(=O)NCC(=O)NCC(=O)NCC(=O)NCC(=O)NCC(=O)N[C@@H](CCCNC(=N)N)C(=O)N[C@@H](CO)C(=O)N[C@@H](Cc1ccc(O)cc1)C(=O)N[C@@H](CCCNC(=N)N)C(=O)N[C@@H](CCC(N)=O)C(=O)N[C@@H](CO)C(=O)N[C@@H](COP(=O)(O)O)C(=O)N[C@@H](C)C(=O)N[C@@H](CC(N)=O)C(=O)N[C@@H](CC(C)C)C(=O)N[C@@H](CC(C)C)C(=O)N[C@@H](CS)C(=O)N[C@@H](Cc1ccccc1)C(=O)O)[C@@H](C)O)[C@@H](C)OP(=O)(O)O)C(C)C` [GR_P522A] (H-KTIVAA[pT]LPQLTPGGGGGRSYRQS[pS]ANLLCF-OH), 63.1 nM.
The same measure for `CC[C@H](C)[C@H](NC(=O)[C@@H](NC(=O)[C@@H](N)CCCCN)[C@@H](C)O)C(=O)N[C@H](C(=O)N1CCC[C@H]1C(=O)N[C@@H](C)C(=O)N[C@H](C(=O)N[C@@H](CC(C)C)C(=O)N[C@@H](C)C(=O)N[C@@H](CCC(N)=O)C(=O)N[C@@H](CC(C)C)C(=O)N[C@H](C(=O)N1CCC[C@H]1C(=O)NCC(=O)NCC(=O)NCC(=O)NCC(=O)NCC(=O)N[C@@H](CCCNC(=N)N)C(=O)N[C@@H](CO)C(=O)N[C@@H](Cc1ccc(O)cc1)C(=O)N[C@@H](CCCNC(=N)N)C(=O)N[C@@H](CCC(N)=O)C(=O)N[C@@H](CO)C(=O)N[C@@H](COP(=O)(O)O)C(=O)N[C@@H](C)C(=O)N[C@@H](CC(N)=O)C(=O)N[C@@H](CC(C)C)C(=O)N[C@@H](CC(C)C)C(=O)N[C@@H](CS)C(=O)N[C@@H](Cc1ccccc1)C(=O)O)[C@@H](C)O)[C@@H](C)OP(=O)(O)O)C(C)C` [GR_P526A] (H-KTIVPA[pT]LAQLTPGGGGGRSYRQS[pS]ANLLCF-OH): 1260 nM; for `CC[C@H](C)[C@H](NC(=O)[C@@H](NC(=O)[C@@H](N)CCCCN)[C@@H](C)O)C(=O)N[C@H](C(=O)N1CCC[C@H]1C(=O)N[C@@H](C)C(=O)N[C@H](C(=O)N[C@@H](CC(C)C)C(=O)N1CCC[C@H]1C(=O)N[C@@H](CCC(N)=O)C(=O)N[C@@H](CC(C)C)C(=O)N[C@H](C(=O)N[C@@H](C)C(=O)NCC(=O)NCC(=O)NCC(=O)NCC(=O)NCC(=O)N[C@@H](CCCNC(=N)N)C(=O)N[C@@H](CO)C(=O)N[C@@H](Cc1ccc(O)cc1)C(=O)N[C@@H](CCCNC(=N)N)C(=O)N[C@@H](CCC(N)=O)C(=O)N[C@@H](CO)C(=O)N[C@@H](COP(=O)(O)O)C(=O)N[C@@H](C)C(=O)N[C@@H](CC(N)=O)C(=O)N[C@@H](CC(C)C)C(=O)N[C@@H](CC(C)C)C(=O)N[C@@H](CS)C(=O)N[C@@H](Cc1ccccc1)C(=O)O)[C@@H](C)O)[C@@H](C)OP(=O)(O)O)C(C)C` [GR_P530A] (H-KTIVPA[pT]LPQLTAGGGGGRSYRQS[pS]ANLLCF-OH): 31.6 nM.
For `CC[C@H](C)[C@H](NC(=O)[C@@H](NC(=O)[C@@H](N)CCCCN)[C@@H](C)O)C(=O)N[C@H](C(=O)N1CCC[C@H]1C(=O)N[C@@H](C)C(=O)N[C@H](C(=O)N[C@@H](CC(C)C)C(=O)N1CCC[C@H]1C(=O)N[C@@H](C)C(=O)N[C@@H](CC(C)C)C(=O)N[C@H](C(=O)N1CCC[C@H]1C(=O)NCC(=O)NCC(=O)NCC(=O)NCC(=O)NCC(=O)N[C@@H](CCCNC(=N)N)C(=O)N[C@@H](CO)C(=O)N[C@@H](Cc1ccc(O)cc1)C(=O)N[C@@H](CCCNC(=N)N)C(=O)N[C@@H](CCC(N)=O)C(=O)N[C@@H](CO)C(=O)N[C@@H](COP(=O)(O)O)C(=O)N[C@@H](C)C(=O)N[C@@H](CC(N)=O)C(=O)N[C@@H](CC(C)C)C(=O)N[C@@H](CC(C)C)C(=O)N[C@@H](CS)C(=O)N[C@@H](Cc1ccccc1)C(=O)O)[C@@H](C)O)[C@@H](C)OP(=O)(O)O)C(C)C` [GR_Q527A] (H-KTIVPA[pT]LPALTPGGGGGRSYRQS[pS]ANLLCF-OH) the value was 31.6 nM.
`CC[C@H](C)[C@H](NC(=O)[C@@H](NC(=O)[C@@H](N)CCCCN)[C@@H](C)O)C(=O)N[C@H](C(=O)N1CCC[C@H]1C(=O)N[C@@H](C)C(=O)N[C@H](C(=O)N[C@@H](CC(C)C)C(=O)N1CCC[C@H]1C(=O)N[C@@H](CCC(N)=O)C(=O)N[C@@H](CC(C)C)C(=O)N[C@H](C(=O)N1CCC[C@H]1C(=O)NCC(=O)NCC(=O)NCC(=O)NCC(=O)NCC(=O)N[C@@H](CCCNC(=N)N)C(=O)N[C@@H](CO)C(=O)N[C@@H](Cc1ccc(O)cc1)C(=O)N[C@@H](CCCNC(=N)N)C(=O)N[C@@H](C)C(=O)N[C@@H](CO)C(=O)N[C@@H](COP(=O)(O)O)C(=O)N[C@@H](C)C(=O)N[C@@H](CC(N)=O)C(=O)N[C@@H](CC(C)C)C(=O)N[C@@H](CC(C)C)C(=O)N[C@@H](CS)C(=O)N[C@@H](Cc1ccccc1)C(=O)O)[C@@H](C)O)[C@@H](C)OP(=O)(O)O)C(C)C` [GR_Q615A] (H-KTIVPA[pT]LPQLTPGGGGGRSYRAS[pS]ANLLCF-OH): the Kd was 39.8 nM.

The values above are taken from paper PMC8080530, “Glucocorticoid receptor Thr524 phosphorylation by MINK1 induces interactions with 14-3-3 protein regulators” (The Journal of Biological Chemistry, 2021).
